Experimental data: patent US10392368B2, “Pyrazolo and triazolo bicyclic compounds as JAK kinase inhibitors” (THERAVANCE BIOPHARMA R&D IP, LLC, priority 2017, dated 2019)
Like-named read-outs stand apart in the source and are kept apart here.

Experiments:
JAK2 = biological target: T1, JAK2 (Homo sapiens, UniProt O60674); assay: Biochemical JAK2 kinase assay (LanthaScreen); details: for Ki: read-out: JAK 2 (pKi) (converted)
T1 construct: GST; purchased Life Technologies
Outline: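 GST-tagged recombinant JAK2 pre-incubated 1 h at ambient temperature with compound and GFP-STAT1 peptide in HEPES pH 7.5/MgCl2 buffer, then ATP added for a 1 h reaction with 1% DMSO. TR-FRET read after EDTA and Tb-anti-pSTAT1 (pTyr701) addition; IC50 from 4-parameter fit, converted to pKi by Cheng-Prusoff.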

JAK1 = biological target: T2, JAK1 (Homo sapiens, UniProt P23458); assay: Biochemical JAK1 kinase assay (LanthaScreen); details: for Ki: read-out: JAK 1 (pKi) (converted)
T2 construct: GST; purchased Life Technologies
Outline: (§1)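 GST-JAK + GFP-STAT1 peptide + cpd, 1 h preinc RT; ATP start, 1% DMSO, 1 h RT; stop 10 mM EDTA + 2 nM Tb-anti-pSTAT1; 1 h; TR-FRET 520/495. % inhib vs DMSO/background → IC50 (4-PL) → pKi (Cheng-Prusoff).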

[1] = tested on: IL-2 stimulated pSTAT5 in Tall-1 T cells; assay: Cellular JAK3 potency assay: inhibition of IL-2 stimulated pSTAT5 in Tall-1 T cells; format: cell-based, human; details: for IC50: Homo sapiens, read-out: Tall-1 (pIC50) (converted)
Outline: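 Tall-1 human T cells (45,000/well) in phenol red-free DMEM with 10% FBS were preincubated with compound 1 h at 37 °C, then stimulated with IL-2 (final 300 ng/ml) for 30 min. Lysate pSTAT5 read by AlphaLisa; IC50 from inhibition curves, reported as pIC50 (mean±SD).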

Tyk2 = biological target: T3, Tyk2 (Homo sapiens, UniProt P29597); assay: Biochemical Tyk2 kinase assay (LanthaScreen); details: for Ki: read-out: Tyk 2 (pKi) (converted)
T3 construct: GST; purchased Life Technologies
Outline: as §1

JAK3 = biological target: T4, JAK3 (Homo sapiens, UniProt P52333); assay: Biochemical JAK3 kinase assay (LanthaScreen); design: GST; purchased Life Technologies; details: for Ki: read-out: JAK 3 (pKi) (converted)
T4 sequence (P52333 1-1124): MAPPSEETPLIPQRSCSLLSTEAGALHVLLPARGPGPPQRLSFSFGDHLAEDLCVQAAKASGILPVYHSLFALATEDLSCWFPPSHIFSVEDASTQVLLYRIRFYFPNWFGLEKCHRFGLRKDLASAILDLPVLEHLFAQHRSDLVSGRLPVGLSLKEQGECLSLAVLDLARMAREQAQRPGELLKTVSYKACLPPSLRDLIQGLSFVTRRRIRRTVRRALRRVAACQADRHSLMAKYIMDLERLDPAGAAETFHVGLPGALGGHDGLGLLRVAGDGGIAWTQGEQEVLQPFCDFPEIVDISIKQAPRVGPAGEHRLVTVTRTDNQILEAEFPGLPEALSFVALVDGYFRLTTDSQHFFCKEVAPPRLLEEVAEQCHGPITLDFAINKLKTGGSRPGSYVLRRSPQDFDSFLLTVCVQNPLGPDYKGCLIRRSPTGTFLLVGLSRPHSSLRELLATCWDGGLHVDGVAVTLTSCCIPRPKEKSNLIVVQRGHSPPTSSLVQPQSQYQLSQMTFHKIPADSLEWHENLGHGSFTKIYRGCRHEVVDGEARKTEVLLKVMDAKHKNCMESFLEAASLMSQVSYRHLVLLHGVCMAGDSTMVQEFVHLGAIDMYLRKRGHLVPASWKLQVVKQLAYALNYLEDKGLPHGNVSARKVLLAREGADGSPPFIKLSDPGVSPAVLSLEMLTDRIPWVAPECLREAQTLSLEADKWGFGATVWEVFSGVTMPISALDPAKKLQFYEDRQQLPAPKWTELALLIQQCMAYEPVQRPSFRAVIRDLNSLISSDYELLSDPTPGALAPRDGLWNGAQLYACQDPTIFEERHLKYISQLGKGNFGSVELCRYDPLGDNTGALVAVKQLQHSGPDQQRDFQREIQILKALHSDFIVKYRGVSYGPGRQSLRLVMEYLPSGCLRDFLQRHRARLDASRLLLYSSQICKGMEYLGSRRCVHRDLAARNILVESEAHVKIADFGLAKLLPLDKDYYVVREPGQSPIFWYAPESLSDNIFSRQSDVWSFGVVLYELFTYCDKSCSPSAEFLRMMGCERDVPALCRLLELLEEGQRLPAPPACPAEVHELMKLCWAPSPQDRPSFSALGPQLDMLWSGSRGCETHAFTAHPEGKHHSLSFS
Outline: as §1

[2] = IL-2 stimulated pSTAT5 in Tall-1 T cells
[3] = selectivity: difference of pKi JAK3 and pKi JAK1
[4] = TALL-1, IL-2 stimulated pSTAT5 in Tall-1 T cells
[5] = TALL-1, IL-2 stimulated pSTAT5, Tall-1 T cells
[6] = selectivity JAK3 over JAK1, difference of pKi
[7] = IL-2 stimulated pSTAT5, Tall-1 T cells

T3 sequence (P29597 whole entry): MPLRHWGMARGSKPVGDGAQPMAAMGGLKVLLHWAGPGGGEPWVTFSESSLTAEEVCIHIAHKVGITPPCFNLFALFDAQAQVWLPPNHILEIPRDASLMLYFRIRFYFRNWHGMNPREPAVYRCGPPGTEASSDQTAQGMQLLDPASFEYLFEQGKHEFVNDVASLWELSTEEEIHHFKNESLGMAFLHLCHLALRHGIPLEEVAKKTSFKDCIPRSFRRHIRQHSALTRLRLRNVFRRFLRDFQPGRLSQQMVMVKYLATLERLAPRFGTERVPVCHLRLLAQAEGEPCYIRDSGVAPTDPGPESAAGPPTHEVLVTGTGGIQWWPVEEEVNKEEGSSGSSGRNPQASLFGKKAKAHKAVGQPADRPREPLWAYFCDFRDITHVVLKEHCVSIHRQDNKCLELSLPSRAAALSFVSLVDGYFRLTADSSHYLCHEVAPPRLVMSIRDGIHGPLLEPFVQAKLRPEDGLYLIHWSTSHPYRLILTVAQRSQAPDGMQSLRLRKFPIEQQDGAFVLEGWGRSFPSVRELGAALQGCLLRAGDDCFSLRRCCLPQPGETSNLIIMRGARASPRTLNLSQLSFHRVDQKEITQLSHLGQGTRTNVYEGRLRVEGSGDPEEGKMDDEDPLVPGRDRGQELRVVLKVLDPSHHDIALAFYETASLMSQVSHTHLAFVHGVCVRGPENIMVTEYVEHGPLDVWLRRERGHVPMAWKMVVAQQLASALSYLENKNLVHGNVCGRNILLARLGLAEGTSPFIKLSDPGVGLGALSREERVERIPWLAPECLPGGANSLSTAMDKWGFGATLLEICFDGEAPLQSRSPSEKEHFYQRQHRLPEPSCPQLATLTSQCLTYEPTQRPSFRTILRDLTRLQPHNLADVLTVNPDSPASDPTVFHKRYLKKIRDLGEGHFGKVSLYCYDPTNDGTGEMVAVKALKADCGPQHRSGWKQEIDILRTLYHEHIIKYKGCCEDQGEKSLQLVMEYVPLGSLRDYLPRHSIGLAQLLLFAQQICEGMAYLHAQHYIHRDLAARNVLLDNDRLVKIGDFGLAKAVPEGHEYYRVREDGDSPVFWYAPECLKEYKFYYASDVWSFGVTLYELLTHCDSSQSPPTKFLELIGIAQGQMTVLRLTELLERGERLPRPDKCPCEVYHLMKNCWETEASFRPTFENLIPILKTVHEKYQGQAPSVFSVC
T2 sequence (P23458 whole entry): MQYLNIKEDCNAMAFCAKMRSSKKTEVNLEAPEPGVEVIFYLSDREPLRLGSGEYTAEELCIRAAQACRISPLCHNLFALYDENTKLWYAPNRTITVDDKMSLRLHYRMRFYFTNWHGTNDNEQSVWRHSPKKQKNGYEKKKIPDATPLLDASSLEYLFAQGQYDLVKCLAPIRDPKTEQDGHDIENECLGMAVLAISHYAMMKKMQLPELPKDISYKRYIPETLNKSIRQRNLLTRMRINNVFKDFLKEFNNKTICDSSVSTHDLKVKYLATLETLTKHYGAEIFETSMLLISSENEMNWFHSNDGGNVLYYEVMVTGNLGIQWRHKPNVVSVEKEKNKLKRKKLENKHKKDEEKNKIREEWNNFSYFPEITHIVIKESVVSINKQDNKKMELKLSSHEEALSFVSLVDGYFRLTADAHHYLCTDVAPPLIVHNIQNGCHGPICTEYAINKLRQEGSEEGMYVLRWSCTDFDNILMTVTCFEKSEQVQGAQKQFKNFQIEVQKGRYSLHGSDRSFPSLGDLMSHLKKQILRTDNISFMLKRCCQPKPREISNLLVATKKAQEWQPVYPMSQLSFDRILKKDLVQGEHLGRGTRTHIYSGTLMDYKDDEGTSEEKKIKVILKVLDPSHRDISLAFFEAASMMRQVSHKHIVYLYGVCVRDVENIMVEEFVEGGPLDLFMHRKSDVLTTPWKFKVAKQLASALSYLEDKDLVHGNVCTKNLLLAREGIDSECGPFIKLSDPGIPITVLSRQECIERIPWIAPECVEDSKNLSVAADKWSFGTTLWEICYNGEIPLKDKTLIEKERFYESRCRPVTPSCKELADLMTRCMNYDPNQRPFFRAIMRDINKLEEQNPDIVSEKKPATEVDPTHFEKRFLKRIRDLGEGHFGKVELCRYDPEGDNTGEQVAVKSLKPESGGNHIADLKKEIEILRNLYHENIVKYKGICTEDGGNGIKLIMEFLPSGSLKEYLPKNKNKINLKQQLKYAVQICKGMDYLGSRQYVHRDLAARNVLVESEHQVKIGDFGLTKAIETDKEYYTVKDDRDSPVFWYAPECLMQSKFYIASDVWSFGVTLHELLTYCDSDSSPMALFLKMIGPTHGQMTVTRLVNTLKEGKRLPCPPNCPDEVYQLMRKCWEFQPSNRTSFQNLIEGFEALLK
T1 sequence (O60674 whole entry): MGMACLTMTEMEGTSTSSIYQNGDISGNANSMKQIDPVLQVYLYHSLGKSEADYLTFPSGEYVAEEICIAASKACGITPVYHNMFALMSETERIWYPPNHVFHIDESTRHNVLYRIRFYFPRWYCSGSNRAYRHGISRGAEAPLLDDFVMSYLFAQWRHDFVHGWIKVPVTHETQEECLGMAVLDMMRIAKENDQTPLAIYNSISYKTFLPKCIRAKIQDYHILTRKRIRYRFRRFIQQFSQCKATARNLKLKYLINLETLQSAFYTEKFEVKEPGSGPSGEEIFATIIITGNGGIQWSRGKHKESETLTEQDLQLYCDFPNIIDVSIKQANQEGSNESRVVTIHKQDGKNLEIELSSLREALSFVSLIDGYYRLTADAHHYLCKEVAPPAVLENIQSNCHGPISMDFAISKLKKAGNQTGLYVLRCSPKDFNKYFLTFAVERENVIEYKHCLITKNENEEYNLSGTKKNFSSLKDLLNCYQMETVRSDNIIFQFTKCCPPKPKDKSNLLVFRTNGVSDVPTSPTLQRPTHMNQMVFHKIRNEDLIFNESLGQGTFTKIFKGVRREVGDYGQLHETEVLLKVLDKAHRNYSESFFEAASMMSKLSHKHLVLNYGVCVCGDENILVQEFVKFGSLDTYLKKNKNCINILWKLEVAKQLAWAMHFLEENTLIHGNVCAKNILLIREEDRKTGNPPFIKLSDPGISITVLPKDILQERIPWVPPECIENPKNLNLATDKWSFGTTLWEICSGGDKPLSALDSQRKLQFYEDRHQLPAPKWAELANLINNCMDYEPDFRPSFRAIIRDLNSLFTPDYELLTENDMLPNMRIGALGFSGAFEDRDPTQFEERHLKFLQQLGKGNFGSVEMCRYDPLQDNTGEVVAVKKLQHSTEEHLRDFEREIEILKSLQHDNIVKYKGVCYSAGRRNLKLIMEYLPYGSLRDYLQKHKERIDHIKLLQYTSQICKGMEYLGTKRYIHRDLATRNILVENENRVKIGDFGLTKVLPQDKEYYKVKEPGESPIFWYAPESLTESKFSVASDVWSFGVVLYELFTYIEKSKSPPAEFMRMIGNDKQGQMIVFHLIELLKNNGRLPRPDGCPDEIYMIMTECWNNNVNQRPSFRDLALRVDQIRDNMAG

Compound	JAK 2 (pKi) (JAK2)	JAK 1 (pKi) (JAK1)	Tall-1 (pIC50) [1, 2]	Tyk 2 (pKi) (Tyk2)	JAK 3 (pKi) (JAK3)	JAK3 (pKi)-JAK1 (pKi) (JAK3; [3])	Ki (JAK2) [nM]	Ki (JAK1) [nM]	IC50 [1, 4] [nM]	Ki (Tyk2) [nM]	Ki (JAK3) [nM]	IC50 [1, 5] [nM]	JAK3 (pKi)-JAK1 (pKi) (JAK3; [6])	Tall-1 (pIC50) [1, 7]	IC50 [1, 2] [nM]
CN(C)C/C=C/C(=O)N1CC(C#N)(COc2nc(-c3ccc(O)c(Cl)c3)cc3[nH]ncc23)C1 [Compound 3-71]	E (a pKi value of 7 or below (Ki of 100 nM or above))	E (a pKi value of 7 or below (Ki of 100 nM or above))	A (a pIC50 value≥7.5 (IC50≤32 nM))	E (a pKi value of 7 or below (Ki of 100 nM or above))	A (a pKi value≥10 (Ki≤0.1 nM))	A (a value of 3 or above)	–	–	–	–	–	–	–	–	–
C=CC(=O)N1CCC(Cc2cc(-c3ccc(O)cc3)cc3[nH]ncc23)CC1 [Compound 14, 1-(4-((6-(4-hydroxyphenyl)-1H-indazol-4-yl)methyl)piperidin-1-yl)prop-2-en-1-one]	–	–	–	–	–	A (a value of 3 or above)	> 100	> 100	31.6 to 200	> 100	0.1 to 1	–	–	–	–
C=CC(=O)N1CC(F)(C(=O)Nc2cc(-c3ccc(O)cc3)cc3[nH]ncc23)C1 [Compound 12-48]	–	–	–	–	–	–	> 100	> 100	–	> 100	0.1 to 1	< 31.6	A (a value of 3 or above)	–	–
C=CC(=O)N1CC(F)(COc2nc(-c3ccc(O)c(F)c3)nc3[nH]ncc23)C1 [Compound 3-93]	–	–	–	–	–	A (a value of 3 or above)	> 100	> 100	< 31.6	> 100	< 0.1	–	–	–	–
CN(C)C/C=C/C(=O)N1CC(F)(C(=O)Nc2cc(-c3ccc(O)cc3)cc3[nH]ncc23)C1 [Compound 12-67]	–	–	–	–	–	–	> 100	> 100	–	> 100	0.1 to 1	31.6 to 200	A (a value of 3 or above)	–	–
CN(C)C/C=C/C(=O)N1CC(CN(C)c2cc(-c3ccc(O)c(Cl)c3)cc3[nH]ncc23)C1 [Compound 4-4]	E (a pKi value of 7 or below (Ki of 100 nM or above))	E (a pKi value of 7 or below (Ki of 100 nM or above))	B (a pIC50 value between 6.7 (included) and 7.5 (IC50 between 200 nM and 32 nM))	E (a pKi value of 7 or below (Ki of 100 nM or above))	A (a pKi value≥10 (Ki≤0.1 nM))	A (a value of 3 or above)	–	–	–	–	–	–	–	–	–
CN(C/C=C/C(=O)N1CC(COc2cc(-c3ccc(O)cc3)cc3[nH]ncc23)C1)C(C)(C)C [Compound 3-116]	–	–	–	–	–	B (a value of 2.3 to 3)	10 to 100	> 100	31.6 to 200	> 100	0.1 to 1	–	–	–	–
C=CC(=O)N1CC(Oc2cc(-c3ccc(O)c(F)c3)cc3[nH]ncc23)(C(F)F)C1 [Compound 5-22]	E (a pKi value of 7 or below (Ki of 100 nM or above))	E (a pKi value of 7 or below (Ki of 100 nM or above))	–	E (a pKi value of 7 or below (Ki of 100 nM or above))	B (a pKi value between 9 and 10 (Ki between 1 nM and 0.1 nM))	–	–	–	–	–	–	–	A (a value of 3 or above)	B (a pIC50 value between 6.7 (included) and 7.5 (IC50 between 200 nM and 32 nM))	–
C=CC(=O)N1CCCC(Oc2cc(-c3ccc(O)c(F)c3)cc3[nH]ncc23)C1 (stereo not drawn) [Compound 8-5]	D (a pKi value between 7 and 8 (Ki between 100 nM and 10 nM))	E (a pKi value of 7 or below (Ki of 100 nM or above))	–	E (a pKi value of 7 or below (Ki of 100 nM or above))	A (a pKi value≥10 (Ki≤0.1 nM))	–	–	–	–	–	–	–	A (a value of 3 or above)	A (a pIC50 value≥7.5 (IC50≤32 nM))	–
C=CC(=O)N1CC[C@H](COc2nc(-c3ccc(O)cc3)cc3[nH]ncc23)C1 [Compound 2-8]	D (a pKi value between 7 and 8 (Ki between 100 nM and 10 nM))	E (a pKi value of 7 or below (Ki of 100 nM or above))	B (a pIC50 value between 6.7 (included) and 7.5 (IC50 between 200 nM and 32 nM))	E (a pKi value of 7 or below (Ki of 100 nM or above))	B (a pKi value between 9 and 10 (Ki between 1 nM and 0.1 nM))	A (a value of 3 or above)	–	–	–	–	–	–	–	–	–
C=CC(=O)N1CC(C#N)(COc2cc(-c3ccc(O)c(Cl)c3)cc3[nH]ncc23)C1 [Compound 3-22]	–	–	–	–	–	A (a value of 3 or above)	> 100	> 100	–	> 100	< 0.1	–	–	–	31.6 to 200
C=CC(=O)N1CC(C#N)(COc2nc(-c3ccc(O)c(Cl)c3)nc3[nH]ncc23)C1 [Compound 3-109]	–	–	–	–	–	A (a value of 3 or above)	> 100	> 100	31.6 to 200	> 100	0.1 to 1	–	–	–	–
C=CC(=O)N1CC[C@H](Oc2cc(-c3ccc(O)cc3)cc3[nH]nc(NC)c23)C1 [Compound 1-21]	–	–	–	–	–	A (a value of 3 or above)	> 100	> 100	31.6 to 200	> 100	0.1 to 1	–	–	–	–
C=CC(=O)N1CC(F)(COc2cc(-c3ccc(O)c(Cl)c3)cc3[nH]ncc23)C1 [Compound 3-43]	D (a pKi value between 7 and 8 (Ki between 100 nM and 10 nM))	E (a pKi value of 7 or below (Ki of 100 nM or above))	A (a pIC50 value≥7.5 (IC50≤32 nM))	E (a pKi value of 7 or below (Ki of 100 nM or above))	B (a pKi value between 9 and 10 (Ki between 1 nM and 0.1 nM))	A (a value of 3 or above)	–	–	–	–	–	–	–	–	–
